Details: a range is the spread between reports

melting point [°C] | Structure (SMILES)
198 to 200 | Nc1ccc(C(=O)NCC(=O)O)cc1
69 to 70 | CCCCCCC(O)C(=O)O (stereo not drawn)
218 to 220 | c1ccc(-c2ccnc3c2ccc2c(-c4ccccc4)ccnc23)cc1
147 to 148 | NC(=O)c1c(F)c(F)c(F)c(F)c1F
49 to 52.5 | COc1ccc(C(C)=O)c(O)c1
149 to 152 | O=C(O)Cc1ccc(O)cc1
219 to 220 | CCCc1cc(O)nc(S)n1
99 to 102 | c1ccc(COc2ccc3[nH]ccc3c2)cc1
-113 | COC(C)OC
110 to 114 | COC(=O)c1ccc(N)cc1
153 to 158 | O=c1cc(-c2ccccc2)oc2c1ccc1ccccc12
234 to 238 | N#Cc1ccc(-c2ccc(C#N)cc2)cc1
264 to 265 | COC(=O)C1C2CC3c4[nH]c5cc(OC)ccc5c4CCN3CC2CC(OC(=O)c2cc(OC)c(OC)c(OC)c2)C1OC (stereo not drawn)
172 to 177 | CO[C@@H]1O[C@H](CO)[C@H](O)[C@H](O)[C@H]1O
59 to 62 | c1ccc(-n2cccc2)cc1
13 to 17 | CCCCCCCCCCN
67 to 70.2 | CCCCCCCCCCCC(=O)CCCCCCCCCCC
189 to 191 | O=C(O)COc1ccccc1C(=O)O
-29.1 to -27 | FC(F)(F)c1ccccc1
-104 | CC(C)CCCl
-83.2 to -81 | C=CCCCCCCC
-154 to -153 | C=CC(C)CC (stereo not drawn)
15 to 16.5 | Cc1cnc2ccccc2c1
79 to 81 | COC(=O)c1ccc(Br)cc1

melting point [°C] | Structure (SMILES)
58 to 61 | Cc1cc2ccccc2[nH]1
-22.5 to -22 | C=CCCC(=O)O
162 | NS(=O)(=O)Cc1noc2ccccc12
80 to 82.5 | COc1ccc(OC)c(N)c1
342 to 347 | O=C(O)c1cccc(C(=O)O)c1
106 to 110 | C1CNCCN1
4.5 to 5 | Cc1cccc(-c2ccccc2)c1
126 to 127 | O=[N+]([O-])c1ccc(Br)cc1
44.5 to 46 | COc1cccc(C#N)c1OC
-42 to -41.5 | CC(C)CC(=O)CC(C)C
17.5 to 18 | C[Si]1(C)O[Si](C)(C)O[Si](C)(C)O[Si](C)(C)O1
83 to 86 | CC(=O)c1ccc(I)cc1
76.5 to 79 | CC1(C)OC(=O)NC1=O
104 to 105 | CC(=O)Nc1cccc(C(F)(F)F)c1
-51.3 to -51 | CC(=O)OCc1ccccc1
258 to 262 | OCC(CO)(CO)CO
56 to 58 | O=Cc1cccc(I)c1
36 to 37.5 | N#Cc1cccc2ccccc12
63 to 68 | Cc1cc2ccccc2cn1
206 to 208 | NC(=O)c1cccc2ccccc12
91 to 91.5 | CC1=c2ccccc2=NC1c1ccccc1 (stereo not drawn)
-33.1 to -33 | CCC(CC)(CC)CC
-32 to -31.6 | CCCCCCC(C)O (stereo not drawn)
266 to 270 | c1ccc2c(c1)ccc1cc3c(ccc4ccccc43)cc12

melting point [°C] | Structure (SMILES)
-88.2 to -88 | CCOC(=O)C(C)C
26 to 27 | Cc1ccc(N)cc1Br
45.5 to 46 | CCCCCCCCCCCCCCCO
-117 | CCC#CC(C)C
229 to 234 | O=C(O)c1ccccc1-c1ccccc1C(=O)O
-10 to -9.2 | C[C@H]1CC[C@@H](O)CC1
170 | Cc1cc(C(=O)O)ccc1N
128 | CCCNC(=O)NS(=O)(=O)c1ccc(Cl)cc1
-69 to -68.7 | CCCCCC(=O)OCCC
-43 to -42.8 | CCc1ccc(CC)cc1
204 to 206 | O=C(O)c1cccc(O)c1O
108 to 110 | Nc1cccc2ncccc12
-68 to -64 | COCCOCCOC
7 to 8 | CCOC(=O)c1ccc(OC)cc1
48 to 52.3 | C#CC(C)(O)c1ccccc1 (stereo not drawn)
274 to 278 | c1cc2cccc3c4cccc5cccc(c(c1)c23)c54
5 to 6.1 | CC12CCC(C1)C(C)(C)C2=O (stereo not drawn)
-63 to -62.6 | Cc1ccc(C)s1
198 to 201 | CC(CCC(=O)O)C1CCC2C3C(O)CC4CC(O)CCC4(C)C3CC(O)C12C (stereo not drawn)
142 to 147 | Cc1ccccc1C(N)=O
14.5 to 16 | N#Cc1cccc(C(F)(F)F)c1
1 to 2 | Cc1ccc(C(C)C)cc1O
10 to 12.5 | c1ccc(Cc2ccccn2)cc1
48.5 to 49 | CC(C)(C)C1CCC(=O)CC1

melting point [°C] | Structure (SMILES)
31.5 to 32 | Cc1ccc(C(C)C)cc2c(C)ccc1-2
-34 to -33.7 | CCCCC(=O)O
149 to 152 | CC(=O)Nc1ccc(C)cc1
92 to 94 | O=C1C=CC(=O)N1
174 to 175 | O=Cc1cccc(C(=O)O)c1
254 | O=C(O)c1ccnc2ccccc12
56 to 56.5 | O=Cc1ccccc1C=O
-51.3 to -51 | CCCCCSCCCCC
2 to 2.4 | N#Cc1c(F)c(F)c(F)c(F)c1F
-23 to -18 | CCCCCCCN
50 to 52.5 | COc1ccc(N)cc1Cl
118 to 119 | CC(C)c1cc(C(C)C)c(C(C)C)cc1C(C)C
270 to 275 | NC(CC(=O)O)C(=O)O (stereo not drawn)
32 to 36 | CC(=O)c1cccc(C(C)=O)c1
150 | O=C1c2ccccc2C(=O)C1c1ccccc1
-15.2 to -15 | OCc1ccccc1
173 to 176 | CC(=O)c1ccc(OCC(=O)O)cc1
88 to 89.3 | Cc1csc(S)n1
-130 | CCC1(C)CC1
-125 to -124 | C#CCCC(C)C
-39 to -38.7 | CC(C(C)(C)C)C(C)(C)C
195 to 196 | COc1cc(C(=O)O)cc(O)c1OC

Structure (SMILES) | melting point [°C]
ClCCCCCl | -38 to -37
O=[N+]([O-])c1ccc(CCl)cc1 | 71 to 73
N#CCc1ccc(CC#N)cc1 | 95 to 96
c1ccc(OCC2CO2)cc1 (stereo not drawn) | 3.5 to 4
C=Cc1ccc(F)cc1 | -36 to -34.5
O=C1C(=O)c2ccccc2-c2ccccc21 | 206 to 210
C#CC1(O)CCCCC1 | 31.5 to 33
CCCCCCCCCl | -58 to -57.8
[O-][N+](=Nc1ccccc1)c1ccccc1 | 35 to 36
ClC1C(Cl)C(Cl)C(Cl)C(Cl)C1Cl (stereo not drawn) | 159 to 160
O=C(O)CI | 81 to 82.5
CC(=O)Nc1ccc(Cl)cc1 | 178 to 179
Nc1ccc(Cl)cc1C(=O)c1ccccc1 | 96 to 99
Cc1ccc([N+](=O)[O-])cc1 | 51 to 54
Cc1ccc([N+](=O)[O-])cc1C | 29 to 31
N#CCCCCC#N | 1 to 2
BrCC(Br)CBr | 16 to 17
CC(C)(C)N=C=S | 10 to 10.5
CC[N+](=O)[O-] | -89.5 to -89
Cc1ccc2c(c1N)C(=O)c1ccccc1C2=O | 205 to 206
COc1cc(Cl)ccc1O | 16.5 to 17
O=[N+]([O-])NC1=NCCN1Cc1ccc(Cl)nc1 | 140 to 144
Nc1ccc2ccccc2c1 | 112 to 113
CC(C)OC(=O)Nc1ccccc1 | 87.3 to 88

Source: a melting point compilation (Tetko et al.)
